Where two headings read alike, the source gives them in different places. Ends that are not written are not given here.

The nature of this series: solubility comparison test in water and mannitol solutions. In kind it is physicochemical. The text has this: Mannitol is a common adjuvant (skeleton forming agent) of freeze-dried preparation, which is used as a carrier to form a hard uniform skeleton so as to improve appearance of the freeze-dried preparation in glass bottles. […] Hydroxyl groups in mannitol molecule can form hydrogen bonds with carbonyl groups in peptide bonds, which cannot directly promote dissolution of polypeptides, but can promote formation of micelle. Therefore, solubilization of mannitol is mainly solubility enhancement after micelle formation. Results of solubility comparison test of the same polypeptide in water and mannitol solutions with different concentrations shown in table 7 as follows: […]

The mark [1] stands for this setting: Solubility in 1% of mannitol solution.
Setting [2] is: Solubility in 2% of mannitol solution.
The mark [3] stands for this setting: 1% of mannitol solution, read-out: Solubility in 1% of mannitol solution.
[4] abbreviates: 2% of mannitol solution, read-out: Solubility in 2% of mannitol solution.
Setting [5] is: water, read-out: Solubility in water.

The solubility is the concentration that dissolves in the medium under given conditions. `CC[C@H](C)[C@H](NC(=O)[C@H](CC(C)C)NC(=O)[C@H](CCC(N)=O)NC(=O)[C@@H](NC(=O)[C@@H](NC(=O)[C@H](CC(C)C)NC(=O)[C@H](C)NC(=O)[C@H](CO)NC(=O)[C@H](CCCCN)NC(=O)CNC(=O)[C@@H](NC(=O)CNC(=O)[C@H](CC(=O)O)NC(=O)[C@H](C)NC(=O)CNC(=O)[C@@H](NC(=O)[C@@H](NC(=O)[C@@H](N)CCCCN)C(C)C)C(C)C)C(C)C)[C@@H](C)O)[C@@H](C)CC)C(=O)N[C@@H](CCC(N)=O)C(=O)N[C@@H](CC(N)=O)C(=O)N[C@@H](Cc1c[nH]cn1)C(=O)O` [GWMI01]: the solubility under setting [1] was at least 1000 µg/mL, the solubility under setting [2] is at least 1000 µg/mL and the solubility (Solubility in water) is under 100 µg/mL.

On to DIQDLKTCIASTTQNIEQKKK [WJIA11], for which the solubility by setting is: under setting [3], at least 1000 µg/mL; under setting [4], at least 1000 µg/mL; under setting [5], under 100 µg/mL.

As to FAEKLTLILQEKYKNYWYPEKPSKGQAY [YMZH17], the solubility was at least 1000 µg/mL under setting [3], at least 1000 µg/mL under setting [4] and 300 µg/mL under setting [5].

As to FHDQPHLKRKAVCSFQIYAVPWQGT [HMZH51], the solubility under setting [3] was at least 10000 µg/mL, the solubility under setting [4] was at least 10000 µg/mL and the solubility under setting [5] was under 2000 µg/mL.

As for FITRPPHRFLSLLCLGLRIPQLSV [YMZH19], the solubility by setting is: under setting [3], over 1000 µg/mL; under setting [4], over 1000 µg/mL; under setting [5], under 100 µg/mL.

Regarding GQAFKYSSNLLRHMRTHTGEKPF [HMZH60], the solubility under setting [1] is at least 10000 µg/mL, the solubility under setting [2] was at least 10000 µg/mL and the solubility (Solubility in water) was under 2000 µg/mL.

For KEQMMREKEKLMLRLQDYEEKTKK [ZZJI58], the solubility by setting is: under setting [3], at least 1000 µg/mL; under setting [4], at least 1000 µg/mL; under setting [5], under 100 µg/mL.

With KFKYVGTMEASEDATFNKITRSLQDLQQK [HMZH66], the solubility under setting [3] is at least 10000 µg/mL, the solubility under setting [4] was at least 10000 µg/mL and the solubility under setting [5] is at most 1500 µg/mL.

In the case of KGFTQGDVGLAMGKLYRNDFSQTTISRFEA [TZQI66], the solubility under setting [3] was at least 1000 µg/mL, the solubility under setting [4] was at least 1000 µg/mL and the solubility under setting [5] was under 100 µg/mL.

In the case of KKKGQQLSGVNAIYFYADQIYLSAGVPEEH [GWMI10], the solubility by setting is: under setting [3], at least 1000 µg/mL; under setting [4], at least 1000 µg/mL; under setting [5], under 100 µg/mL.

Regarding KKKKFVALVLSTLHMLTYGWTRAFEESRYK [ZZJI44], the solubility is at least 1000 µg/mL under setting [3], at least 1000 µg/mL under setting [4] and under 100 µg/mL under setting [5].

Take KLTLASWGPKMVLLRLEHQFAVGK [YMZH14]: the solubility by setting is: under setting [3], at least 1000 µg/mL; under setting [4], at least 1000 µg/mL; under setting [5], 300 µg/mL.

Turning to KLVFVRKSLNRIEFRECREEILKFLKK [GWMI13], the solubility runs as follows: under setting [3], at least 1000 µg/mL; under setting [4], at least 1000 µg/mL; under setting [5], under 100 µg/mL.

With “PGWSLTLGLRCSSRLGLPK [LYLI37, PGWSLTLGLRCSSRLGLPK]”, the solubility reads like this: under setting [3], at least 1000 µg/mL; under setting [4], at least 1000 µg/mL; under setting [5], under 100 µg/mL.

Turning to SRKLEDYGEQKSMSISTAKRLAEFLGDQK [HMZH59], the solubility runs as follows: under setting [3], at least 1000 µg/mL; under setting [4], at least 1000 µg/mL; under setting [5], 300 µg/mL.

As for SSPAEFFELMKGQIRIAKRRVVMASLYLGT [TZQI51], the solubility is at least 1000 µg/mL under setting [3], at least 1000 µg/mL under setting [4] and under 100 µg/mL under setting [5].

In the case of SVFGDRITGETIRSQNVMAAASK [WKYE17], the solubility is at least 1000 µg/mL under setting [3], at least 1000 µg/mL under setting [4] and under 100 µg/mL under setting [5].

For the compound “TSLKGEIAFDPRRAYYLWF [LXJI54, TSLKGEIAFDPRRAYYLWF]”, the solubility runs as follows: under setting [3], at least 1000 µg/mL; under setting [4], at least 1000 µg/mL; under setting [5], under 100 µg/mL.

Take YKQLTIQVLLDRLVLQRLYPLAIQIKK [YMZH10]: the solubility runs as follows: under setting [3], at least 1000 µg/mL; under setting [4], at least 1000 µg/mL; under setting [5], 300 µg/mL.

The values above are taken from patent publication US20230338491A1, “METHOD FOR SCREENING INDIVIDUAL TUMOR NEOANTIGEN PEPTIDE, AND VACCINE FORMULATION THEREOF” (HANGZHOU NEOANTIGEN THERAPEUTICS CO., LTD., priority 2021, published 2023).
